Tests used:
Experiment in all cases: relative viability (nuclei count vs DMSO), 5 days (fraction); higher = more cells survive
[1] = compound: CN[C@@H]1C[C@H]2O[C@@](C)([C@@H]1OC)n1c3ccccc3c3c4c(c5c6ccccc6n2c5c31)C(=O)NC4 [Staurosporine] + Cc1nc(NC(=O)N2CCC[C@H]2C(N)=O)sc1-c1ccnc(C(C)(C)C(F)(F)F)c1 [Alpelisib] (partner 2 µM)
In short: (§1)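 Lung cancer cell lines in 1536-well plates were dosed by pin tool the day after seeding, either with one drug alone or with a fixed anchor-drug dose plus five library-drug doses (not always all listed) in √10 steps. After 5 days, cells were fixed and their nuclei stained in one step (final 0.05% Triton X-100, 1% formaldehyde, 1 ug/ml Hoechst), then counted on 4× images. Relative viability is the nuclei count in treated wells divided by that in vehicle wells. Values are medians of duplicate plates.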

[2] = compound: CC1=C(CC(=O)O)c2cc(F)ccc2/C1=C\c1ccc([S+](C)[O-])cc1 [Sulindac] + CS(=O)(=O)N1CCN(Cc2cc3nc(-c4cccc5[nH]ncc45)nc(N4CCOCC4)c3s2)CC1 [Pictilisib] (partner 1 µM)
In short: as §1

[3] = compound: O=c1[nH]cc(F)c(=O)[nH]1 [5-Fluorouracil] + N=C(N)NC(=N)NCCc1ccccc1 [Phenformin] (partner 250 µM)
In short: as §1

[4] = compound: CC1=C(CC(=O)O)c2cc(F)ccc2/C1=C\c1ccc([S+](C)[O-])cc1 [Sulindac] + CC(=O)Nc1cccc(-n2c(=O)n(C3CC3)c(=O)c3c(Nc4ccc(I)cc4F)n(C)c(=O)c(C)c32)c1 [Trametinib] (partner 0.02 µM)
In short: as §1

Cell Line | relative viability ([1]; first compound 0.005 µM) | relative viability ([1]; first compound 0.01581 µM) | relative viability ([1]; first compound 0.05 µM) | relative viability ([1]; first compound 0.1581 µM) | relative viability ([1]; first compound 0.5 µM) | relative viability ([2]; first compound 0.08 µM) | relative viability ([2]; first compound 0.253 µM) | relative viability ([2]; first compound 0.8 µM) | relative viability ([2]; first compound 2.53 µM) | relative viability ([2]; first compound 8 µM) | relative viability ([3]; first compound 0.02 µM) | relative viability ([3]; first compound 0.2 µM) | relative viability ([3]; first compound 0.6325 µM) | relative viability ([3]; first compound 2 µM) | relative viability ([4]; first compound 0.08 µM) | relative viability ([4]; first compound 0.253 µM) | relative viability ([4]; first compound 0.8 µM) | relative viability ([4]; first compound 2.53 µM) | relative viability ([4]; first compound 8 µM)
201T | 1.03 | 0.973 | 0.874 | 0.715 | 0.59 | 0.737 | 0.665 | 0.627 | 0.678 | 0.698 | 0.423 | 0.378 | 0.288 | 0.297 | 0.763 | 0.732 | 0.717 | 0.695 | 0.712
A549 | 0.206 | 0.284 | 0.0899 | 0.0462 | 0.0282 | 0.573 | 0.528 | 0.327 | 0.467 | 0.857 | 0.172 | 0.258 | 0.153 | 0.0868 |  |  |  |  | 
A-427 | 1.03 | 0.889 | 0.374 | 0.25 | 0.143 | 0.84 | 0.507 | 0.625 | 0.805 | 0.717 | 0.29 | 0.461 | 0.279 | 0.212 | 0.685 | 0.709 | 0.732 | 0.673 | 0.848
ABC-1 | 0.535 | 0.255 | 0.168 | 0.182 | 0.0986 | 0.987 | 0.849 | 0.539 | 0.542 | 0.979 | 0.202 | 0.253 | 0.257 | 0.23 |  |  |  |  | 
BEN | 1.26 |  | 0.615 | 0.497 | 0.286 | 0.599 | 0.56 | 0.443 | 0.673 | 0.667 | 0.255 | 0.257 | 0.285 | 0.251 | 0.975 | 1.03 | 0.934 | 1.02 | 1.13
CAL-12T | 0.374 | 0.146 | 0.125 | 0.0823 | 0.0729 | 0.442 | 0.374 | 0.401 | 0.324 | 0.616 | 0.616 | 0.614 | 0.37 | 0.425 | 0.285 | 0.357 | 0.343 | 0.312 | 0.361
COR-L23 | 0.204 | 0.226 | 0.143 | 0.0629 | 0.0497 | 0.987 | 0.933 |  | 0.727 | 1.07 | 0.4 | 0.427 | 0.278 | 0.228 | 0.653 | 0.671 | 0.357 | 0.548 | 0.725
COR-L 105 | 0.59 | 0.388 | 0.236 | 0.235 | 0.197 | 0.392 | 0.36 | 0.36 | 0.338 | 0.489 | 0.452 | 0.495 | 0.45 | 0.337 | 0.374 | 0.472 | 0.445 | 0.45 | 0.449
Calu-6 | 0.732 | 0.612 | 0.279 | 0.104 | 0.0766 | 1.03 | 0.989 | 0.799 | 0.949 | 1.17 |  |  |  |  |  |  |  |  | 
ChaGo-K-1 |  |  |  |  |  | 0.808 | 0.645 | 0.74 | 0.647 | 1.45 | 0.526 | 0.476 | 0.433 | 0.348 | 1.05 | 0.963 | 0.817 | 0.914 | 0.903
EBC-1 | 0.367 | 0.307 | 0.151 | 0.157 | 0.145 | 0.382 | 0.422 | 0.343 | 0.342 | 0.49 |  |  |  |  |  |  |  |  | 
EKVX | 0.729 | 0.409 | 0.177 | 0.214 | 0.122 | 0.409 | 0.487 | 0.381 | 0.475 | 0.516 | 0.18 | 0.179 | 0.13 | 0.134 | 0.299 | 0.34 | 0.292 | 0.335 | 0.333
EMC-BAC-2 | 0.34 | 0.23 | 0.0952 | 0.131 | 0.108 | 0.524 | 0.58 | 0.485 | 0.542 | 0.596 | 0.625 | 0.542 | 0.498 | 0.51 | 1.03 | 0.917 | 0.794 | 0.794 | 0.994
EPLC-272H | 0.977 | 0.122 | 0.459 | 0.156 | 0.188 | 0.293 |  | 0.252 | 0.284 | 0.361 | 0.247 | 0.257 | 0.245 | 0.184 | 0.195 |  | 0.266 | 0.245 | 0.279
H3255 | 0.612 | 0.367 | 0.215 | 0.174 | 0.0798 | 0.486 | 0.463 | 0.464 | 0.562 | 0.524 | 0.35 | 0.393 | 0.35 | 0.351 | 0.635 | 0.661 | 0.509 | 0.699 | 0.656
HARA | 0.532 | 0.173 | 0.142 | 0.0954 | 0.0999 | 0.302 | 0.507 |  | 0.374 | 0.452 | 0.426 | 0.559 | 0.455 | 0.27 | 0.516 | 0.926 | 0.777 | 0.715 | 0.735
HCC-15 | 0.887 |  | 0.64 | 0.453 | 0.262 | 0.861 | 0.817 | 0.526 | 0.735 | 0.814 | 0.563 | 0.532 | 0.332 | 0.27 | 0.415 | 0.395 | 0.375 | 0.347 | 0.283
HCC-44 | 0.441 | 0.167 | 0.106 | 0.11 | 0.0846 | 0.403 | 0.562 | 0.537 | 0.687 | 0.589 |  | 0.262 | 0.154 | 0.182 | 1.11 | 1.13 | 0.969 | 1.26 | 1.02
HCC-78 | 0.394 | 0.305 | 0.241 | 0.281 | 0.237 | 0.309 | 0.269 | 0.207 | 0.183 | 0.246 | 0.697 | 0.706 | 0.558 | 0.312 | 0.844 | 0.865 | 0.647 | 0.81 | 0.824
